Assay results from US7838045B2, “Anti-inflammatory activity of phenethylisothiocyanate (PEITC) and the Barbarea verna seed preparation containing this compound” (priority 2005, dated 2010).

How the values were obtained:
Format in all cases: cell-based, mouse
[1] = tested on: COX2; assay: qPCR gene expression in LPS-stimulated RAW264.7 macrophages, COX2; settings: for COX2 % down-regulation: 8 hour treatment
Protocol: (§1) The mouse monocyte/macrophage cell line RAW 264.7 (obtained from American Type Culture Collection, ATCC, VA USA) was maintained in Dulbecco's Modified Eagle Medium (DMEM) (Invitrogen Inc) supplemented with 100 U/ml penicillin, 100 μg/ml streptomycin, and 10% heat-inactivated fetal calf serum. All incubations were at 37° C. in a 5% CO2 in internal air atmosphere, within the growth chamber.
Cells were seeded at a density of 0.4×10^6 cells per well (viable cell counts performed with a hemocytometer), in 24 well plates 12 hours prior to treatment. The cells were then treated with test compounds at required concentrations (pre-determined doses) for 2 hours before elicitation with LPS at 1 μg/ml for an additional 6 hours. For every experiment one positive control (cells treated only with LPS) and one negative control (cells without any treatment) were included. For treatments and the controls, two replicates were made in each case. At the end, cells were harvested in Trizol reagent (Invitrogen Inc) for subsequent cellular RNA extraction. […] Cell viability was measured by MTT assay (Mosmann (1983) J. Immunol. Methods 65:55-63).
(§2) Total RNA was extracted from RAW macrophages using Trizol reagent (Invitrogen Inc.) following manufacturer instructions. RNA was quantified spectro-photometrically by absorption measurements at 260 nm and 280 nm using NanoDrop™ system (NanoDrop Technologies Inc. DE, USA). RNA was assessed qualitatively by gel-electrophoresis methods. RNA was then treated with DnaseI (Invitrogen Inc.) also following manufacturer guidelines, to remove any traces of DNA contamination. The cDNAs were synthesized using 3 μg of RNA for each sample using Stratascript™ Reverse Transcriptase, an RNA dependent DNA polymerase (Stratagene, La Jolla, Calif.), following manufacturer protocol. Utmost care was taken to minimize any quantification inaccuracy and pipetting error.
(§3) The synthesized cDNAs were diluted 4-fold. 2 μl of each of these diluted samples were used for PCR reactions of 25 μl final volume. The other components of the PCR reactions were 0.5 μl of 6 μM gene specific primers (oligos synthesized by IDT Inc. USA), 12.5 μl of Brilliant SYBR green PCR master mix (2×) (Stratagene, La Jolla, Calif.) containing green jump-start Taq ready mix. ROX (Stratagene, La Jolla, Calif.) was used as an internal dye. To avoid interference due to genomic DNA contamination, only intron-overlapping primers were selected using the software Primer Express™ (Applied Biosystem, Foster City, Calif.) as follows:
(§4) Forward and reverse pairs of the primers are indicated above as “F” and “R” respectively. PCR amplifications were performed on MX3000p system (Stratagene, La Jolla, Calif.) using 1 cycle at 50° C. for 2 min, 1 cycle of 95° C. for 10 minutes, followed by 40 cycles of 15 seconds at 95° C. and 1 min at 60° C. The dissociation curve was completed with one cycle of 1 minute at 95° C., 30 seconds of 55° C. and 30 seconds of 95° C. NRT (non-RT control) and NTC (no template control) were included in the PCR program as quality control steps.
(§5) RNA expressions for COX2, iNOS and IL1β, normalized with respect to the expression of housekeeping β-actin gene, were analyzed using the ΔΔCt method (software from Stratagene inc, USA) as described by Pfaffl (Pfaffl, 2001, Nucleic Acids Res 29(9):2002-2007). The ΔΔCt values obtained from these analyses were converted [(1−ΔΔCt)×100] to obtain percentage of inhibition (% inhibition or % downregulation) which reflected the anti-inflammatory properties of the test compounds (Table 2, 4). A value of 100% indicates complete inhibition of LPS-stimulated genetic up-regulation. 0% implies absence of any anti-inflammatory activity of the test compound.

[2] = tested on: iNOS; assay: qPCR gene expression in LPS-stimulated RAW264.7 macrophages, iNOS; settings: for iNOS % down-regulation: 8 hour treatment
Protocol: as §1
(§6) Cells were seeded at a density of 0.4×10^6 cells per well (viable cell counts performed with a hemocytometer), in 24 well plates 12 hours prior to treatment. The cells were then treated with test compounds at required concentrations (pre-determined doses) for 2 hours before elicitation with LPS at 1 μg/ml for an additional 6 hours. For every experiment one positive control (cells treated only with LPS) and one negative control (cells without any treatment) were included. For treatments and the controls, two replicates were made in each case. At the end, cells were harvested in Trizol reagent (Invitrogen Inc) for subsequent cellular RNA extraction. The stock of BSP used for the assay was prepared by partially dissolving 50 mg/ml seed preparation in 95% ethyl alcohol for 15 minutes by sonication, where it released PEITC in the clear supernatant that was used for the cell treatment. Cell viability was measured by MTT assay (Mosmann (1983) J. Immunol. Methods 65:55-63).
as §2, §3, §4
as §5, with “compound. […]” for “compound.”

[3] = tested on: IL1β; assay: qPCR gene expression in LPS-stimulated RAW264.7 macrophages, IL1β; settings: for IL1β % down-regulation: 8 hour treatment
Protocol: as §1, §6, §2, §3, §4
as §5, with “compound. […]” for “compound.”

[4] = Mus musculus, RAW264.7, pure compound

Structure (SMILES) | COX2 % down-regulation ([1]; 5 μM) | iNOS % down-regulation ([2]; 5 μM) [%] | IL1β % down-regulation ([3]; 5 μM) [%] | COX2 % down-regulation ([1]; 1 μM) [%] | COX2 % down-regulation ([1]; 10 μM) | COX2 % down-regulation ([1]; 20 μM) [%] | iNOS % down-regulation ([2]; 1 μM) [%] | iNOS % down-regulation ([2]; 10 μM) [%] | iNOS % down-regulation ([2]; 20 μM) [%] | IL1β % down-regulation ([3]; 1 μM) [%] | IL1β % down-regulation ([3]; 10 μM) [%] | IL1β % down-regulation ([3]; 20 μM) [%] | also measured
C=CCN=C=S [Allyl] | Up-regulation | 76 | 86 | – | – | – | – | – | – | – | – | – | iNOS % down-regulation ([2]; 5 μM, listed as allyl): equally active as PEITC; IL1β % down-regulation ([3]; 5 μM, listed as allyl): equally active as PEITC
S=C=NCCc1ccccc1 [PEITC, phenethylisothiocyanate] | 19.0 ± 27.1% | 69.8 ± 21.1 | 86.0 ± 9.8 | −73.5 ± 20.5 | 28.3 ± 15.0% | 99.5 ± 0.7 | 2.0 ± 7.1 | 81.7 ± 5.5 | 99.5 ± 0.7 | 36.5 ± 9.2 | 92.0 ± 10.4 | 100.0 ± 0.0 | COX2 % down-regulation ([1]; 40 μM): 100.0 ± 0.0%; COX2 % down-regulation ([1]; 80 μM): 100.0 ± 0.0%; IC50 [1, 4]: 17 µM; iNOS % down-regulation ([2]; 40 μM): 99.5 ± 0.7%; iNOS % down-regulation ([2]; 80 μM): 99.5 ± 0.7%; IC50 [2, 4]: 4 µM; IL1β % down-regulation ([3]; 40 μM): 100.0 ± 0.0%; IL1β % down-regulation ([3]; 80 μM): 100.0 ± 0.0%; IC50 ([3]; Mus musculus, RAW264.7, pure compound, read-out: IC50 in IL1 β-assay): 2000 nM
S=C=Nc1ccccc1 [Phenyl] | Up-regulation | 31 | 47 | – | 3% | – | – | 35 | – | – | 59 | – | –
CC(C)(C)N=C=S [Tert-butyl] | Up-regulation | 3 | 44 | – | Up-regulation | – | – | 0 | – | – | 61 | – | –
CS(=O)(=O)c1ccc(C2=C(c3ccccc3)C(=O)OC2)cc1 [rofecoxib] | 8% | 37 | 10 | −52 | 22% | 25 | 35 | 68 | 45 | 18 | 12 | 15 | –
CC(C)N=C=S [Isopropyl] | Up-regulation | 9 | 40 | – | Up-regulation | – | – | 7 | – | – | 59 | – | –
